Measured values reported in patent publication US20230286970A1, “NOVEL OXADIAZOLE-BASED SELECTIVE HDAC6 INHIBITORS” (ITALFARMACO S.P.A., priority 2020, published 2023).

Experiments:
[1] = biological target: recombinant human HDAC1 (Homo sapiens (Human), UniProt Q13547); assay: Enzymatic screening, HDAC1 inhibition (fluorogenic FdL_G substrate); format: biochemical
Procedure: (§1) For each test compound, 100× concentrated DMSO solutions at 8 doses were prepared and then diluted in assay buffer (25 mM Tris-HCl, pH 8, 130 mM NaCl, 0.05% Tween-20, 10% Glycerol) to obtain 5× concentrated solutions in relation to the final concentrations (typical final concentration range—6.4-200000 nM or 0.18-50000 nM, final DMSO content—1%). Then 10 μL solution of each test compound concentration were placed on a 96-well plate in triplicate and 15 μL of 3.33× concentrated enzyme solution in the assay buffer containing 3.33× concentrated BSA (final BSA concentration—2 mg/mL for HDAC4, HDAC5 and HDAC9 or 1 mg/mL for other isoforms) and in the case of HDAC6-3.33× concentrated TCEP (final TCEP concentration—200 μM) were added to each well. After a period of preincubation (incubation times and temperatures vary for different isoforms and are shown in table 1) 25 μL of solution containing the substrate were added. As substrate, FLUOR DE LYS® deacetylase substrate (Enzo Life Sciences, cat: BML-KI104, FdL), FLUOR DE LYS®-Green substrate (Enzo Life Sciences, cat: BML-KI572, FdL_G) or Boc-Lys(Tfa)-AMC (Bachem, cat: 4060676.005, Tfal)—2× concentrated solution in assay buffer were used. Following a reaction period (reaction times and temperatures vary for different isoforms and are reported in Table 1), 50 μL of the development solution consisting of concentrate FLUOR DE LYS® developer I (Enzo Life Sciences, ca: BML-KI105), diluted 200 times in buffer (50 mM Tris-HCl, pH 8, 137 mM NaCl, 2.7 mM KCl, 1 mM MgCl2) plus 2 μM TSA was added and, after 25 minutes at room temperature in the dark, using the Victor 1420 Multilabel Counter Perkin Elmer Wallac instrument, the fluorescence reading was carried out.

[2] = biological target: recombinant human HDAC6 (Homo sapiens (Human), UniProt Q9UBN7); assay: Enzymatic screening, HDAC6 inhibition (fluorogenic FdL_G substrate); format: biochemical
Procedure: as §1

Sequence of recombinant human HDAC1 (Q13547 whole entry, canonical isoform): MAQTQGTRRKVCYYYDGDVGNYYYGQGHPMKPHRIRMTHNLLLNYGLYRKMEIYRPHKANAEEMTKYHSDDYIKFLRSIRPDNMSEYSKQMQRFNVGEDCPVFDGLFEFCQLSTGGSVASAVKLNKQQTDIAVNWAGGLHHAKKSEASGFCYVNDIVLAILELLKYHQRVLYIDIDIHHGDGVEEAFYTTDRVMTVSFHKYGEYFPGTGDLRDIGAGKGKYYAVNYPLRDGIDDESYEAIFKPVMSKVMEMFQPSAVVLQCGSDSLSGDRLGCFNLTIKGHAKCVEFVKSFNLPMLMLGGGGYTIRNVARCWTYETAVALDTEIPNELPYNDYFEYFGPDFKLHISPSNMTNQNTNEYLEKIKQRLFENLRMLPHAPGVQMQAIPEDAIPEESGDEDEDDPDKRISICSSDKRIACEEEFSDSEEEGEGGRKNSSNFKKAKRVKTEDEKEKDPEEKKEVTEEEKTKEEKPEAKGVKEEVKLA
Sequence of recombinant human HDAC6 (Q9UBN7 whole entry): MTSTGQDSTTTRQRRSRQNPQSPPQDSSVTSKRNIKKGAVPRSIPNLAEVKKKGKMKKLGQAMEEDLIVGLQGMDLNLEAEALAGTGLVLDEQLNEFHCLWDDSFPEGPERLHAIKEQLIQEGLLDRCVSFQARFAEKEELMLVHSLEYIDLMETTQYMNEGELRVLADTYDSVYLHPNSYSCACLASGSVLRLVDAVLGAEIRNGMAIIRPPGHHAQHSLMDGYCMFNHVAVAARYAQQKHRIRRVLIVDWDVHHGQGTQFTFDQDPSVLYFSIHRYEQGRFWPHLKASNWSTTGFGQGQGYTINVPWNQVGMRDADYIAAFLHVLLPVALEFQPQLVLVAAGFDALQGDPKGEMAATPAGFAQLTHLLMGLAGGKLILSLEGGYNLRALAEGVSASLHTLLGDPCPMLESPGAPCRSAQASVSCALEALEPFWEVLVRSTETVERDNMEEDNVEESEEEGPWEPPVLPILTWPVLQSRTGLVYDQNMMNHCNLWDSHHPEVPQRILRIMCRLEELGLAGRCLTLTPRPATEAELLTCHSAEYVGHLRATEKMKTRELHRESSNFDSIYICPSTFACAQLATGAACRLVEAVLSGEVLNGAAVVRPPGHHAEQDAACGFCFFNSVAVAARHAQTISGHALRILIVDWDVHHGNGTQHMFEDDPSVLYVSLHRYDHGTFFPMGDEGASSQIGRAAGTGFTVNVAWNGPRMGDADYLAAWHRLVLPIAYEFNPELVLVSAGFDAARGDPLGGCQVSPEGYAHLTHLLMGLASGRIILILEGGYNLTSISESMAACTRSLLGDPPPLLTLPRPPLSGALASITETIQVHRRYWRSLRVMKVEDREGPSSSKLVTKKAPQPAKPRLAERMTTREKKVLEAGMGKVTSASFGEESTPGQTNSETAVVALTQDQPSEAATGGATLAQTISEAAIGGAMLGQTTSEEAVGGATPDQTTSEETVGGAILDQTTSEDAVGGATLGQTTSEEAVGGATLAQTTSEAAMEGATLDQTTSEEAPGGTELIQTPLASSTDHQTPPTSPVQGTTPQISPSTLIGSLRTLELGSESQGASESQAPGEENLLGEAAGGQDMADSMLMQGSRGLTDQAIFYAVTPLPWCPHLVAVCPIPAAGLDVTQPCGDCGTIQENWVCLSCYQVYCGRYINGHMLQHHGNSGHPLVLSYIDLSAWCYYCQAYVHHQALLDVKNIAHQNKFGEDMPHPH

Work on `CC(C)(C)OC(=O)N1CCC2(C1)C(=O)Nc1ccc(-c3cn(Cc4ccc(-c5nnc(C(F)F)o5)cn4)nn3)cc12` (single isomer, unassigned) [compound 265, tert-butyl 5-[1-({5-[5-(difluoromethyl)-1,3,4-oxadiazol-2-yl]pyridin-2-yl}methyl)-1H-1,2,3-triazol-4-yl]-2-oxo-1,2-dihydrospiro[indole-3,3′-pyrrolidine]-1′-carboxylate] yielded an IC50 [1] of over 200 µM and an IC50 [2] of 0.026 µM.

`CC(C)(C)OC(=O)N1CCC2(C1)C(=O)Nc1ccc(-c3cn(Cc4ccc(-c5nnc(C(F)F)o5)cn4)nn3)cc12` (single isomer, unassigned) [compound 266, tert-butyl 5-[1-({5-[5-(difluoromethyl)-1,3,4-oxadiazol-2-yl]pyridin-2-yl}methyl)-1H-1,2,3-triazol-4-yl]-2-oxo-1,2-dihydrospiro[indole-3,3′-pyrrolidine]-1′-carboxylate] gave an IC50 [1] of over 200 µM and an IC50 [2] of 0.035 µM.

`CC[C@H](c1ccc(-c2nnc(C(F)F)o2)cc1)n1cc(-c2cccc(NC(=O)N3CCOCC3)c2)nn1` (stereo in doubt) [compound 184, N-(3-(1-(1-(4-(5-(difluoromethyl)-1,3,4-oxadiazol-2-yl)phenyl)propyl)-1H-1,2,3-triazol-4-yl)phenyl)morpholine-4-carboxamide] showed an IC50 [1] of over 200 µM and an IC50 [2] of 0.096 µM.

`CCC[C@@H](c1ccc(-c2nnc(C(F)F)o2)cc1)n1cc(-c2cccc(NC(=O)N3CCOCC3)c2)nn1` (stereo in doubt) [compound 205, N-(3-(1-(1-(4-(5-(difluoromethyl)-1,3,4-oxadiazol-2-yl)phenyl)butyl)-1H-1,2,3-triazol-4-yl)phenyl)morpholine-4-carboxamide] showed an IC50 [1] of over 200 µM and an IC50 [2] of 0.122 µM.

Compound `O=C1Nc2ccc(-c3cn(Cc4ccc(-c5nnc(C(F)F)o5)cn4)nn3)cc2C12CCCC2` [Compd. 26, 5′-(1-((5-(5-(difluoromethyl)-1,3,4-oxadiazol-2-yl)pyridin-2-yl)methyl)-1H-1,2,3-triazol-4-yl)spiro[cyclopentane-1,3′-indolin]-2′-one] has an IC50 [1] of over 200 µM and an IC50 [2] of 0.008 µM.

Work on `CC(c1ccc(-c2nnc(C(F)F)o2)cc1)n1cc(-c2ccc(N)nc2)nn1` (stereo not shown) [Compd. 158, 5-(1-(1-(4-(5-(difluoromethyl)-1,3,4-oxadiazol-2-yl)phenyl)ethyl)-1H-1,2,3-triazol-4-yl)pyridin-2-amine] yielded an IC50 [2] of 0.072 µM.

`C[C@@H]1CN(c2ccc(-c3nnn(Cc4ccc(-c5nnc(C(F)F)o5)cc4)n3)cn2)CCN1` [compound 159, (R)-2-(difluoromethyl)-5-(4-((5-(6-(3-methylpiperazin-1-yl)pyridin-3-yl)-2H-tetrazol-2-yl)methyl)phenyl)-1,3,4-oxadiazole] was tested, and the IC50 [1] was over 200 µM.

With `C[C@H]1CN(c2ccc(-c3nnn(Cc4ccc(-c5nnc(C(F)F)o5)cc4)n3)cn2)CCN1` [compound 182, (S)-2-(difluoromethyl)-5-(4-((5-(6-(3-methylpiperazin-1-yl)pyridin-3-yl)-2H-tetrazol-2-yl)methyl)phenyl)-1,3,4-oxadiazole] the IC50 [1] was over 200 µM.

With `COc1ccc(-c2nnn(Cc3ccc(-c4nnc(C(F)F)o4)cc3)n2)cc1` [compound 204, 2-(difluoromethyl)-5-(4-((5-(4-methoxyphenyl)-2H-tetrazol-2-yl)methyl)phenyl)-1,3,4-oxadiazole] the IC50 [2] was 0.122 µM.

`FC(F)c1nnc(-c2ccc(Cn3nnc(-c4ccc(Cl)cc4Cl)n3)cc2)o1` [compound 263, 2-(4-((5-(2,4-dichlorophenyl)-2H-tetrazol-2-yl)methyl)phenyl)-5-(difluoromethyl)-1,3,4-oxadiazole] was tested, and the IC50 [2] was 0.489 µM.

With `Nc1ncc2cc(-c3nnn(Cc4ccc(-c5nnc(C(F)F)o5)cc4)n3)ccc2n1` [compound 278, 6-(2-(4-(5-(difluoromethyl)-1,3,4-oxadiazol-2-yl)benzyl)-2H-tetrazol-5-yl)quinazolin-2-amine] the IC50 [2] was 0.186 µM.

`Nc1cnc2ccc(-c3nnn(Cc4cc(F)c(-c5nnc(C(F)F)o5)cc4F)n3)cc2c1` [compound 398, 6-[2-[[4-[5-(difluoromethyl)-1,3,4-oxadiazol-2-yl]-2,5-difluorophenyl]methyl]tetrazol-5-yl]quinolin-3-amine] showed an IC50 [2] of 0.049 µM.

`Nc1cnc2ccc(-c3nnn(Cc4ccc(-c5nnc(C(F)F)o5)c(F)c4)n3)cc2c1` [compound 400, 6-[2-[[4-[5-(difluoromethyl)-1,3,4-oxadiazol-2-yl]-3-fluorophenyl]methyl]tetrazol-5-yl]quinolin-3-amine] was tested, and the IC50 [2] was 0.032 µM.

With `Nc1ncnc2sc(-c3cn(Cc4ccc(-c5nnc(C(F)F)o5)c(F)c4)nn3)cc12` [compound 417, 6-[1-({4-[5-(difluoromethyl)-1,3,4-oxadiazol-2-yl]-3-fluorophenyl}methyl)-1H-1,2,3-triazol-4-yl]thieno[2,3-d]pyrimidin-4-amine] the IC50 [2] was 0.044 µM.

In the case of `Nc1ncnc2cc(-c3cn(Cc4ccc(-c5nnc(C(F)F)o5)c(F)c4)nn3)ccc12` [compound 418, 7-(1-(4-(5-(difluoromethyl)-1,3,4-oxadiazol-2-yl)-3-fluorobenzyl)-1H-1,2,3-triazol-4-yl)quinazolin-4-amine], the IC50 [2] is reported as 0.027 µM.

Compound `Nc1ncc2cc(-c3nnn(Cc4ccc(-c5nnc(C(F)F)o5)cc4F)n3)ccc2n1` [compound 424, 6-(2-(4-(5-(difluoromethyl)-1,3,4-oxadiazol-2-yl)-2-fluorobenzyl)-2H-tetrazol-5-yl)quinazolin-2-amine] has an IC50 [2] of 0.076 µM.

Compound `Nc1ncc2cc(-c3nnn(Cc4ccc(-c5nnc(C(F)F)o5)cc4Cl)n3)ccc2n1` [compound 425, 6-(2-(2-chloro-4-(5-(difluoromethyl)-1,3,4-oxadiazol-2-yl)benzyl)-2H-tetrazol-5-yl)quinazolin-2-amine] has an IC50 [2] of 0.545 µM.

`Fc1cc(-c2nnc(C(F)F)o2)ccc1Cn1nnc(-c2ccc3cnccc3c2)n1` [compound 427, 2-(difluoromethyl)-5-(3-fluoro-4-((5-(isoquinolin-6-yl)-2H-tetrazol-2-yl)methyl)phenyl)-1,3,4-oxadiazole] gave an IC50 [2] of 0.072 µM.

With `Fc1cc(-c2nnc(C(F)F)o2)c(F)cc1Cn1nnc(-c2ccc3cnccc3c2)n1` [compound 428, 2-(2,5-difluoro-4-((5-(isoquinolin-6-yl)-2H-tetrazol-2-yl)methyl)phenyl)-5-(difluoromethyl)-1,3,4-oxadiazole] the IC50 [2] was 0.099 µM.

`Fc1cc(-c2nnc(C(F)F)o2)ccc1Cn1nnc(-c2nccc3ccccc23)n1` [compound 431, 2-(difluoromethyl)-5-(3-fluoro-4-((5-(isoquinolin-1-yl)-2H-tetrazol-2-yl)methyl)phenyl)-1,3,4-oxadiazole] showed an IC50 [2] of 0.352 µM.

In the case of `Nc1ncnc2cc(-c3cn(Cc4cc(F)c(-c5nnc(C(F)F)o5)cc4F)nn3)ccc12` [compound 433, 7-(1-(4-(5-(difluoromethyl)-1,3,4-oxadiazol-2-yl)-2,5-difluorobenzyl)-1H-1,2,3-triazol-4-yl)quinazolin-4-amine], the IC50 [2] is reported as 0.023 µM.

For `Nc1ncnc2cc(-c3cn(Cc4ccc(-c5nnc(C(F)F)o5)cc4Cl)nn3)ccc12` [compound 434, 7-(1-(2-chloro-4-(5-(difluoromethyl)-1,3,4-oxadiazol-2-yl)benzyl)-1H-1,2,3-triazol-4-yl)quinazolin-4-amine], the IC50 [2] was 0.059 µM.

`CNc1ccc2cc(-c3nnn(Cc4cc(F)c(-c5nnc(C(F)F)o5)cc4F)n3)ccc2n1` [compound 504, 6-(2-(4-(5-(difluoromethyl)-1,3,4-oxadiazol-2-yl)-2,5-difluorobenzyl)-2H-tetrazol-5-yl)-N-methylquinolin-2-amine] gave an IC50 [2] of 0.1 µM.
